In patent US7718684B2, “Methods and materials for assessing prostate cancer therapies and compounds” (The Regents of the University of California, priority 2004, dated 2010):

Legend:
[1] = tested on: prostate-specific antigen (PSA) produced by LNCaP cells; experiment: PSA produced by LNCaP cells; format: cell-based, human
[2] = tested on: LNCaP-AR cells; experiment: In vitro growth of LNCaP-AR cells (low androgen / bicalutamide)
[3] = tested on: LNCaP cells infected with the empty vector; experiment: In vitro growth of LNCaP vector cells in low androgen; format: cell-based, human; settings: steroid-depleted
[4] = molecular target: AR transcription complex on the promoters of PSA and KLK2 in LNCaP cells (Homo sapiens, UniProt P10275, T878A)
[5] = tested on: AR LBD; settings: cited from earlier work
[6] = tested on: LNCaP cells infected with the empty-vector control; experiment: Microarray of induced genes in LNCaP control cells; format: cell-based, human; settings: 10 μM
[7] = tested on: PSA expression in LAPC4 cells expressing increased levels of AR; experiment: PSA expression in LAPC4 cells with increased AR; settings: androgen-starved
[8] = tested on: PSA mRNA and protein expression in parental LAPC4 cells; experiment: PSA expression in parental LAPC4 cells; settings: androgen-starved
[9] = tested on: LNCaP-AR cells; experiment: Microarray of induced genes in LNCaP-AR cells; format: cell-based, human

Sequence of AR transcription complex on the promoters of PSA and KLK2 in LNCaP cells (P10275 whole entry T878A, the tested form may be a part, one chain of several): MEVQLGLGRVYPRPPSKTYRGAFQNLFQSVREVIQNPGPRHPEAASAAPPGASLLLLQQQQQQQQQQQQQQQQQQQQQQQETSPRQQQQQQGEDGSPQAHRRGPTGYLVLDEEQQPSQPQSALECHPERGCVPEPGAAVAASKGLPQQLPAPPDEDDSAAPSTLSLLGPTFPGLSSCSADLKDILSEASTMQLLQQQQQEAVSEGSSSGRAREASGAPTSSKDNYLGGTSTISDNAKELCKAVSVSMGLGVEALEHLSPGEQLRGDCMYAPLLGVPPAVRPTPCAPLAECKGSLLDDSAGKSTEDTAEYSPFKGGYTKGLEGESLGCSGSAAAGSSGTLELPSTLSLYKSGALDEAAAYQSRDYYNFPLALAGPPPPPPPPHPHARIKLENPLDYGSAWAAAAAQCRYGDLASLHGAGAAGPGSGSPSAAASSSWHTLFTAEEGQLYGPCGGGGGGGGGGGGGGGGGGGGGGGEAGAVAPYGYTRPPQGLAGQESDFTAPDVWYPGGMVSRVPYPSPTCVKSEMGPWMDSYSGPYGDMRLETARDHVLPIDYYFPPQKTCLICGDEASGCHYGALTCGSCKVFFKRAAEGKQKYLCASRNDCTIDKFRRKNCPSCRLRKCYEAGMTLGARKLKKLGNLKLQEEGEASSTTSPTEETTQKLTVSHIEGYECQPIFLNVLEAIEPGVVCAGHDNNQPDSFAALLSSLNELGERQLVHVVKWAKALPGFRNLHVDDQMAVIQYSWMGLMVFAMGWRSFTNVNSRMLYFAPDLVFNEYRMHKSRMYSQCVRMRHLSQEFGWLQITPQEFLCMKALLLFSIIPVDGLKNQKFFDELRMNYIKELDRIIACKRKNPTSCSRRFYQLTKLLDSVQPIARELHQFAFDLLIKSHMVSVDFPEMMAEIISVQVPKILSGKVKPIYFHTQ

With CC1(C)C(=O)N(c2ccc(C#N)c(C(F)(F)F)c2)C(=S)N1c1ccc(N=[N+]=[N-])cc1 [Compound 5] as the compound, how does the antagonist character ([1]; LNCaP cells, PSA) read?
Its antagonist character is “full antagonists”.

And the “IC50 for PSA expression compared with bicalutamide” value ([1]; LNCaP cells, relative to bicalutamide)?
The value was “ten-fold lower”.

And the “agonist and antagonist effects” value ([1]; initial screening and biological testing)?
Its value is “best antagonist effects without any strong agonist effects”.

For C[C@]1(O)CC[C@H]2[C@@H]3CCC4=CC(=O)CCC4=C3C=C[C@@]21C [Compound R1881, R1881], which “lower concentration supporting growth versus vector cells” value ([2]; charcoal-stripped serum, relative to vector cells) is on record?
Its value is “at least 80%”.

And the “concentration needed for growth in charcoal-stripped serum” value [3]?
Its value is 100 pM.

And the “recruitment of AR and polymerase II to promoters” value [4]?
The value was “AR and polymerase II were recruited to both promoters regardless of AR level”.

Which “binding to AR LBD compared with drugs such as bicalutamide” value [5] does the source give for CC1(C)C(=O)N(c2ccc(C#N)c(C(F)(F)F)c2)C(=S)N1CCCCO [RU59063] here?
Its value is “more potent binders of the AR LBD”.

With CC(O)(CS(=O)(=O)c1ccc(F)cc1)C(=O)Nc1ccc(C#N)c(C(F)(F)F)c1 (stereo not shown) [bicalutamide] as the compound, how does the probe sets induced [6] read?
Its probe sets induced is “no elements were significantly upregulated”.

And the “effect on PSA expression” value [7]?
Its value is “functioned as an agonist”.

What about the “effect on PSA mRNA and protein expression” value [8] of the same compound?
Its value is “typical antagonist activity”.

And the “growth in the presence of the antiandrogen” value ([2]; LNCaP-AR cells)?
Its value is “resistant”.

What about the probe sets induced ([9]; 10 μM, 2-fold increase, P<0.05, 500 minimum expression) of the same compound?
Its probe sets induced is 48 probe sets.

What about the “subset of total androgen-regulated genes induced” value ([9]; of >600 androgen-regulated probe sets) of the same compound?
The value was < 10%.
